Laboratory results as given in US10597388B2, “Pyridazinone herbicides” (FMC CORPORATION, priority 2014, dated 2020).

How the values were obtained:
Assay in all cases: Test E greenhouse herbicide test, pre- and postemergence
Format in all cases: in vivo
[1] = system: panicum, fall (fall panicum, Panicum dichotomiflorum)
Method in brief: (§1)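 Visual ratings, 0 for no effect up to 100 for complete control, were taken relative to controls 14 to 21 d after greenhouse treatment. Applications used a surfactant-containing non-phytotoxic solvent formulation, sprayed either preemergence on silt loam-sown seed or postemergence on 1- to 4-leaf plants 2-18 cm tall in peat-based potting medium.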

[2] = system: barnyardgrass (Echinochloa crus-galli)
Method in brief: as §1

[3] = system: arrowleaf sida (Sida rhombifolia)
Method in brief: as §1

[4] = system: nightshade (eastern black nightshade, Solanum ptycanthum); conditions: Preemergence
Method in brief: as §1

[5] = system: momingglory (Ipomoea coccinea); conditions: Preemergence
Method in brief: as §1

[6] = system: crabgrass, large (large crabgrass, Digitaria sanguinalis); conditions: Preemergence
Method in brief: as §1

[7] = system: surinam grass (Brachiaria decumbens); conditions: Preemergence
Method in brief: as §1

[8] = system: ragweed (common ragweed, Ambrosia elatior)
Method in brief: as §1

kochia (Kochia scoparia) = system: kochia (Kochia scoparia)
Method in brief: as §1

[9] = system: nutsedge, yellow (yellow nutsedge, Cyperus esculentus); conditions: Preemergence
Method in brief: as §1

[10] = system: johnsongrass (Sorghum halepense); conditions: Preemergence
Method in brief: as §1

[11] = system: beggarticks (hairy beggarticks, Bidens pilosa)
Method in brief: as §1

[12] = system: foxtail, giant (giant foxtail, Setaria faberii); conditions: Preemergence
Method in brief: as §1

[13] = system: goosegrass (Eleusine indica); conditions: Preemergence
Method in brief: as §1

[14] = system: sandbur (southem sandbur, Cenchrus echinatus)
Method in brief: as §1

[15] = system: velvetleaf (Abutilon theophrasti); conditions: Preemergence
Method in brief: as §1

[16] = system: field bindweed (Convolvulus arvensis)
Method in brief: as §1

[17] = 62 g ai/ha, Postemergence, scale 0 to 100 (0 no effect, 100 complete control)
[18] = 62 g ai/ha, Preemergence, scale 0 to 100 (0 no effect, 100 complete control)
[19] = 125 g ai/ha, Postemergence, scale 0 to 100 (0 no effect, 100 complete control)
[20] = 125 g ai/ha, Preemergence, scale 0 to 100 (0 no effect, 100 complete control)
[21] = Postemergence, 16 g ai/ha, visual, scale 0 no effect to 100 complete control
[22] = Postemergence, 31 g ai/ha, visual, scale 0 no effect to 100 complete control
[23] = Preemergence, 16 g ai/ha, scale 0 to 100, 0 no effect, 100 complete control
[24] = Preemergence, 31 g ai/ha, scale 0 to 100, 0 no effect, 100 complete control
[25] = 62 g ai/ha, scale 0 to 100 (0 no effect, 100 complete control)
[26] = 125 g ai/ha, scale 0 to 100 (0 no effect, 100 complete control)
[27] = 16 g ai/ha, scale 0 to 100, 0 no effect, 100 complete control
[28] = 31 g ai/ha, scale 0 to 100, 0 no effect, 100 complete control

For `CCCC(=O)Oc1c(C)nn(C)c(=O)c1-c1c(C)sc2ccc(C)cc12` [Compound 105], which “Plant response rating, Panicum, Fall” value [1, 17] is on record?
The value was 70.

What about the “Plant response rating, Panicum, Fall” value [1, 18] of the same molecule?
The value was 90.

And the “Plant response rating, Panicum, Fall” value [1, 19]?
The value was 80.

What about the “Plant response rating, Panicum, Fall” value [1, 20] of the same molecule?
Its value is 98.

What about the “Plant response rating, Panicum, Fall” value [1, 21] of the same molecule?
Its value is 40.

What about the “Plant response rating, Panicum, Fall” value [1, 22] of the same molecule?
The value was 60.

What about the “Plant response rating, Panicum, Fall” value [1, 23] of the same molecule?
Its value is 25.

And the “Plant response rating, Panicum, Fall” value [1, 24]?
Its value is 65.

And the “Plant response rating, Barnyardgrass” value [2, 17]?
Its value is 30.

And the “Plant response rating, Barnyardgrass” value [2, 18]?
The value was 20.

What about the “Plant response rating, Barnyardgrass” value [2, 19] of the same molecule?
Its value is 30.

What about the “Plant response rating, Barnyardgrass” value [2, 20] of the same molecule?
Its value is 35.

And the “Plant response rating, Barnyardgrass” value [2, 21]?
The value was 15.

And the “Plant response rating, Barnyardgrass” value [2, 22]?
The value was 20.

And the “Plant response rating, Barnyardgrass” value [2, 23]?
Its value is 20.

And the “Plant response rating, Arrowleaf Sida” value [3, 17]?
Its value is 60.

And the “Plant response rating, Arrowleaf Sida” value [3, 18]?
Its value is 40.

And the “Plant response rating, Arrowleaf Sida” value [3, 19]?
The value was 70.

And the “Plant response rating, Arrowleaf Sida” value [3, 20]?
Its value is 50.

And the “Plant response rating, Arrowleaf Sida” value [3, 21]?
The value was 50.

What about the “Plant response rating, Arrowleaf Sida” value [3, 22] of the same molecule?
The value was 60.

What about the “Plant response rating, Arrowleaf Sida” value [3, 23] of the same molecule?
The value was 0.

And the “Plant response rating, Arrowleaf Sida” value [3, 24]?
The value was 0.

And the “Plant response rating, Nightshade” value [4, 25]?
The value was 98.

And the “Plant response rating, Nightshade” value [4, 26]?
Its value is 98.

And the “Plant response rating, Nightshade” value [4, 27]?
Its value is 0.

And the “Plant response rating, Nightshade” value [4, 28]?
The value was 50.

And the “Plant response rating, Morningglory” value [5, 25]?
The value was 70.

What about the “Plant response rating, Morningglory” value [5, 26] of the same molecule?
The value was 60.

And the “Plant response rating, Morningglory” value [5, 27]?
Its value is 40.

What about the “Plant response rating, Morningglory” value [5, 28] of the same molecule?
Its value is 20.

What about the “Plant response rating, Crabgrass, Large” value [6, 25] of the same molecule?
Its value is 50.

What about the “Plant response rating, Crabgrass, Large” value [6, 26] of the same molecule?
Its value is 75.

And the “Plant response rating, Crabgrass, Large” value [6, 27]?
The value was 0.

And the “Plant response rating, Crabgrass, Large” value [6, 28]?
Its value is 0.

And the “Plant response rating, Surinam Grass” value [7, 25]?
The value was 10.

And the “Plant response rating, Surinam Grass” value [7, 26]?
The value was 70.

What about the “Plant response rating, Surinam Grass” value [7, 27] of the same molecule?
The value was 0.

And the “Plant response rating, Surinam Grass” value [7, 28]?
The value was 0.

And the “Plant response rating, Ragweed” value [8, 17]?
The value was 90.

And the “Plant response rating, Ragweed” value [8, 18]?
Its value is 95.

And the “Plant response rating, Ragweed” value [8, 19]?
The value was 95.

What about the “Plant response rating, Ragweed” value [8, 20] of the same molecule?
The value was 98.

And the “Plant response rating, Ragweed” value [8, 21]?
The value was 70.

What about the “Plant response rating, Ragweed” value [8, 23] of the same molecule?
The value was 50.

What about the “Plant response rating, Ragweed” value [8, 24] of the same molecule?
The value was 65.

And the “Plant response rating, Kochia” value (kochia (Kochia scoparia); [17])?
The value was 90.

What about the “Plant response rating, Kochia” value (kochia (Kochia scoparia); [18]) of the same molecule?
The value was 35.

And the “Plant response rating, Kochia” value (kochia (Kochia scoparia); [19])?
Its value is 100.

What about the “Plant response rating, Kochia” value (kochia (Kochia scoparia); [20]) of the same molecule?
Its value is 100.

What about the “Plant response rating, Kochia” value (kochia (Kochia scoparia); [21]) of the same molecule?
Its value is 80.

What about the “Plant response rating, Kochia” value (kochia (Kochia scoparia); [22]) of the same molecule?
Its value is 80.

And the “Plant response rating, Kochia” value (kochia (Kochia scoparia); [23])?
Its value is 0.

What about the “Plant response rating, Kochia” value (kochia (Kochia scoparia); [24]) of the same molecule?
The value was 0.

And the “Plant response rating, Nutsedge, Yellow” value [9, 25]?
The value was 10.

And the “Plant response rating, Nutsedge, Yellow” value [9, 26]?
The value was 40.

What about the “Plant response rating, Nutsedge, Yellow” value [9, 27] of the same molecule?
The value was 0.

And the “Plant response rating, Nutsedge, Yellow” value [9, 28]?
Its value is 0.

What about the “Plant response rating, Johnsongrass” value [10, 25] of the same molecule?
Its value is 20.

And the “Plant response rating, Johnsongrass” value [10, 26]?
The value was 20.

And the “Plant response rating, Johnsongrass” value [10, 27]?
The value was 0.

What about the “Plant response rating, Johnsongrass” value [10, 28] of the same molecule?
The value was 0.

And the “Plant response rating, Beggarticks” value [11, 17]?
The value was 100.

And the “Plant response rating, Beggarticks” value [11, 18]?
The value was 100.

What about the “Plant response rating, Beggarticks” value [11, 19] of the same molecule?
The value was 100.

And the “Plant response rating, Beggarticks” value [11, 20]?
Its value is 100.

What about the “Plant response rating, Beggarticks” value [11, 21] of the same molecule?
The value was 80.

What about the “Plant response rating, Beggarticks” value [11, 22] of the same molecule?
Its value is 90.

And the “Plant response rating, Beggarticks” value [11, 23]?
Its value is 90.

And the “Plant response rating, Beggarticks” value [11, 24]?
The value was 80.

What about the “Plant response rating, Foxtail, Giant” value [12, 25] of the same molecule?
Its value is 35.

And the “Plant response rating, Foxtail, Giant” value [12, 26]?
Its value is 75.

What about the “Plant response rating, Foxtail, Giant” value [12, 27] of the same molecule?
Its value is 0.

What about the “Plant response rating, Foxtail, Giant” value [12, 28] of the same molecule?
The value was 0.

And the “Plant response rating, Goosegrass” value [13, 25]?
Its value is 0.

And the “Plant response rating, Goosegrass” value [13, 26]?
Its value is 10.

What about the “Plant response rating, Goosegrass” value [13, 27] of the same molecule?
The value was 0.

What about the “Plant response rating, Goosegrass” value [13, 28] of the same molecule?
Its value is 0.

What about the “Plant response rating, Sandbur” value [14, 18] of the same molecule?
The value was 70.

And the “Plant response rating, Sandbur” value [14, 19]?
Its value is 50.

And the “Plant response rating, Sandbur” value [14, 20]?
The value was 75.

And the “Plant response rating, Sandbur” value [14, 21]?
The value was 30.

What about the “Plant response rating, Sandbur” value [14, 22] of the same molecule?
The value was 40.

What about the “Plant response rating, Sandbur” value [14, 23] of the same molecule?
The value was 0.

And the “Plant response rating, Sandbur” value [14, 24]?
Its value is 15.

What about the “Plant response rating, Velvetleaf” value [15, 25] of the same molecule?
The value was 70.

And the “Plant response rating, Velvetleaf” value [15, 26]?
Its value is 95.

What about the “Plant response rating, Velvetleaf” value [15, 27] of the same molecule?
The value was 0.

What about the “Plant response rating, Velvetleaf” value [15, 28] of the same molecule?
Its value is 50.

And the “Plant response rating, Field Bindweed” value [16, 17]?
Its value is 75.

And the “Plant response rating, Field Bindweed” value [16, 18]?
The value was 50.

And the “Plant response rating, Field Bindweed” value [16, 19]?
Its value is 95.

And the “Plant response rating, Field Bindweed” value [16, 20]?
Its value is 70.

And the “Plant response rating, Field Bindweed” value [16, 21]?
The value was 75.

And the “Plant response rating, Field Bindweed” value [16, 22]?
Its value is 80.

What about the “Plant response rating, Field Bindweed” value [16, 23] of the same molecule?
The value was 20.

What about the “Plant response rating, Field Bindweed” value [16, 24] of the same molecule?
Its value is 20.
